# Experimental data from PubChem BioAssay AID2060884 (Molecular Pharmacology Branch, DTP, NCI, 2025).
# Test system: NCI-H929 complex spheroids, viability % test/control
# Test: Anticancer human tumor NCI-H929 cell line growth inhibition [RAS];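 also: compound exposure lasted seven days before viability was read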;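 as to viability, T/C: 100% = DMSO vehicle control viability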
# Conditions: for viability, T/C: stronger effect = lower value
# In short: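 Multi-cell-type spheroids: tumor cells plus HUVEC endothelial cells and mesenchymal stem cells. RAS-pathway inhibitors were combined with targeted agents, each dosed in half-log steps down from clinical Cmax, or from 10 microM when Cmax was unknown.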
# [1] = curve of first compound, second compound 0.00316 µM
# [2] = curve of first compound, second compound 0.01 µM
# [3] = curve of first compound, second compound 0.0316 µM
# [4] = curve of first compound, second compound 0.1 µM
# [5] = curve of first compound, second compound 0.316 µM
# [6] = curve of first compound, second compound 1 µM
# [7] = second compound 0.00316 µM, first compound 0.0316 µM
# [8] = second compound 0.00316 µM, first compound 0.1 µM
# [9] = second compound 0.00316 µM, first compound 0.316 µM
# [10] = second compound 0.00316 µM, first compound 1 µM
# [11] = second compound 0.01 µM, first compound 0.0316 µM
# [12] = second compound 0.01 µM, first compound 0.1 µM
# [13] = second compound 0.01 µM, first compound 0.316 µM
# [14] = second compound 0.01 µM, first compound 1 µM
# [15] = second compound 0.0316 µM, first compound 0.0316 µM
# [16] = second compound 0.0316 µM, first compound 0.1 µM
# [17] = second compound 0.0316 µM, first compound 0.316 µM
# [18] = second compound 0.0316 µM, first compound 1 µM
# [19] = second compound 0.1 µM, first compound 0.0316 µM
# [20] = second compound 0.1 µM, first compound 0.1 µM
# [21] = second compound 0.1 µM, first compound 0.316 µM
# [22] = second compound 0.1 µM, first compound 1 µM
# [23] = second compound 0.316 µM, first compound 0.0316 µM
# [24] = second compound 0.316 µM, first compound 0.1 µM
# [25] = second compound 0.316 µM, first compound 0.316 µM
# [26] = second compound 0.316 µM, first compound 1 µM
# [27] = second compound 1 µM, first compound 0.0316 µM
# [28] = second compound 1 µM, first compound 0.1 µM
# [29] = second compound 1 µM, first compound 0.316 µM
# [30] = second compound 1 µM, first compound 1 µM
compound,measurement,setting,value
O=C(c1ccc(F)c(F)c1Nc1ccc(I)cc1F)N1CC(O)([C@@H]2CCCCN2)C1 + CCn1c(-c2cc(N3CCN(C)CC3)cnc2C(C)OC)c2c3cc(ccc31)-c1csc(n1)CC(NC(=O)C1CC1C)C(=O)N1CCCC(N1)C(=O)OCC(C)(C)C2,IC50,"curve of first compound, second compound 0.000949 µM",625 nM
same,IC50,"curve of first compound, second compound 0.003 µM",290 nM
same,IC50,"curve of first compound, second compound 0.00949 µM",69 nM
same,IC50,"curve of first compound, second compound 0.03 µM",< 3.16 nM
same,IC50,"curve of first compound, second compound 0.0949 µM",< 3.16 nM
same,IC50,"curve of first compound, second compound 0.3 µM",< 3.16 nM
same,"viability, T/C","second compound 0.000949 µM, first compound 0.00316 µM",93.3%
same,"viability, T/C","second compound 0.000949 µM, first compound 0.01 µM",92.5%
same,"viability, T/C","second compound 0.000949 µM, first compound 0.0316 µM",103%
same,"viability, T/C","second compound 0.000949 µM, first compound 0.1 µM",108%
same,"viability, T/C","second compound 0.000949 µM, first compound 0.316 µM",97.3%
same,"viability, T/C","second compound 0.000949 µM, first compound 1 µM",17.4%
same,"viability, T/C","second compound 0.003 µM, first compound 0.00316 µM",90.8%
same,"viability, T/C","second compound 0.003 µM, first compound 0.01 µM",101%
same,"viability, T/C","second compound 0.003 µM, first compound 0.0316 µM",111%
same,"viability, T/C","second compound 0.003 µM, first compound 0.1 µM",119%
same,"viability, T/C","second compound 0.003 µM, first compound 0.316 µM",45.5%
same,"viability, T/C","second compound 0.003 µM, first compound 1 µM",7.02%
same,"viability, T/C","second compound 0.00949 µM, first compound 0.00316 µM",110%
same,"viability, T/C","second compound 0.00949 µM, first compound 0.01 µM",117%
same,"viability, T/C","second compound 0.00949 µM, first compound 0.0316 µM",113%
same,"viability, T/C","second compound 0.00949 µM, first compound 0.1 µM",19.9%
same,"viability, T/C","second compound 0.00949 µM, first compound 0.316 µM",6.27%
same,"viability, T/C","second compound 0.00949 µM, first compound 1 µM",3.63%
same,"viability, T/C","second compound 0.03 µM, first compound 0.00316 µM",31.8%
same,"viability, T/C","second compound 0.03 µM, first compound 0.01 µM",15.7%
same,"viability, T/C","second compound 0.03 µM, first compound 0.0316 µM",4.87%
same,"viability, T/C","second compound 0.03 µM, first compound 0.1 µM",2.83%
same,"viability, T/C","second compound 0.03 µM, first compound 0.316 µM",2.77%
same,"viability, T/C","second compound 0.03 µM, first compound 1 µM",2.07%
same,"viability, T/C","second compound 0.0949 µM, first compound 0.00316 µM",4.34%
same,"viability, T/C","second compound 0.0949 µM, first compound 0.01 µM",3.41%
same,"viability, T/C","second compound 0.0949 µM, first compound 0.0316 µM",1.75%
same,"viability, T/C","second compound 0.0949 µM, first compound 0.1 µM",1.48%
same,"viability, T/C","second compound 0.0949 µM, first compound 0.316 µM",1.32%
same,"viability, T/C","second compound 0.0949 µM, first compound 1 µM",0.89%
same,"viability, T/C","second compound 0.3 µM, first compound 0.00316 µM",3%
same,"viability, T/C","second compound 0.3 µM, first compound 0.01 µM",1.97%
same,"viability, T/C","second compound 0.3 µM, first compound 0.0316 µM",1.19%
same,"viability, T/C","second compound 0.3 µM, first compound 0.1 µM",1.05%
same,"viability, T/C","second compound 0.3 µM, first compound 0.316 µM",1.12%
same,"viability, T/C","second compound 0.3 µM, first compound 1 µM",0.68%
C[C@@H](NC(=O)c1ncnc(N)c1Cl)c1ncc(C(=O)Nc2cc(C(F)(F)F)c(Cl)cn2)s1 + C=CC(=O)N1CCN(c2nc(OCC3CCCN3C)nc3c(F)c(-c4nc(N)cc(C)c4C(F)(F)F)c(Cl)cc23)C(C)C1,IC50,[1],> 10000 nM
same,IC50,[2],> 10000 nM
same,IC50,[3],> 10000 nM
same,IC50,[4],> 10000 nM
same,IC50,[5],> 10000 nM
same,IC50,[6],> 10000 nM
same,"viability, T/C",[7],106%
same,"viability, T/C",[8],95.9%
same,"viability, T/C",[9],101%
same,"viability, T/C",[10],97.9%
same,"viability, T/C","second compound 0.00316 µM, first compound 3.16 µM",101%
same,"viability, T/C","second compound 0.00316 µM, first compound 10 µM",115%
same,"viability, T/C",[11],91.8%
same,"viability, T/C",[12],101%
same,"viability, T/C",[13],92.3%
same,"viability, T/C",[14],83.8%
same,"viability, T/C","second compound 0.01 µM, first compound 3.16 µM",91.2%
same,"viability, T/C","second compound 0.01 µM, first compound 10 µM",116%
same,"viability, T/C",[15],95%
same,"viability, T/C",[16],94.1%
same,"viability, T/C",[17],93%
same,"viability, T/C",[18],87.8%
same,"viability, T/C","second compound 0.0316 µM, first compound 3.16 µM",100%
same,"viability, T/C","second compound 0.0316 µM, first compound 10 µM",115%
same,"viability, T/C",[19],85.9%
same,"viability, T/C",[20],95.2%
same,"viability, T/C",[21],104%
same,"viability, T/C",[22],97.7%
same,"viability, T/C","second compound 0.1 µM, first compound 3.16 µM",103%
same,"viability, T/C","second compound 0.1 µM, first compound 10 µM",114%
same,"viability, T/C",[23],99.6%
same,"viability, T/C",[24],102%
same,"viability, T/C",[25],102%
same,"viability, T/C",[26],95%
same,"viability, T/C","second compound 0.316 µM, first compound 3.16 µM",97.3%
same,"viability, T/C","second compound 0.316 µM, first compound 10 µM",117%
same,"viability, T/C",[27],110%
same,"viability, T/C",[28],101%
same,"viability, T/C",[29],103%
same,"viability, T/C",[30],108%
same,"viability, T/C","second compound 1 µM, first compound 3.16 µM",103%
same,"viability, T/C","second compound 1 µM, first compound 10 µM",111%
Nc1ccn(C2OC(CO)C(O)C2(F)F)c(=O)n1 (configuration not stated) + C=CC(=O)N1CCN(c2nc(OCC3CCCN3C)nc3c(F)c(-c4nc(N)cc(C)c4C(F)(F)F)c(Cl)cc23)C(C)C1,IC50,[1],18.4 nM
same,IC50,[2],18.4 nM
same,IC50,[3],18.4 nM
same,IC50,[4],17.7 nM
same,IC50,[5],18.6 nM
same,IC50,[6],18.9 nM
same,"viability, T/C","second compound 0.00316 µM, first compound 0.00316 µM",102%
same,"viability, T/C","second compound 0.00316 µM, first compound 0.01 µM",106%
same,"viability, T/C",[7],1.52%
same,"viability, T/C",[8],2.24%
same,"viability, T/C",[9],1.73%
same,"viability, T/C",[10],0.82%
same,"viability, T/C","second compound 0.01 µM, first compound 0.00316 µM",97.8%
same,"viability, T/C","second compound 0.01 µM, first compound 0.01 µM",111%
same,"viability, T/C",[11],1.3%
same,"viability, T/C",[12],2.1%
same,"viability, T/C",[13],1.62%
same,"viability, T/C",[14],0.86%
same,"viability, T/C","second compound 0.0316 µM, first compound 0.00316 µM",94.8%
same,"viability, T/C","second compound 0.0316 µM, first compound 0.01 µM",114%
same,"viability, T/C",[15],1.48%
same,"viability, T/C",[16],1.95%
same,"viability, T/C",[17],1.12%
same,"viability, T/C",[18],0.76%
same,"viability, T/C","second compound 0.1 µM, first compound 0.00316 µM",99.3%
same,"viability, T/C","second compound 0.1 µM, first compound 0.01 µM",97.3%
same,"viability, T/C",[19],1.86%
same,"viability, T/C",[20],2.03%
same,"viability, T/C",[21],1.73%
same,"viability, T/C",[22],1%
same,"viability, T/C","second compound 0.316 µM, first compound 0.00316 µM",101%
same,"viability, T/C","second compound 0.316 µM, first compound 0.01 µM",114%
same,"viability, T/C",[23],1.08%
same,"viability, T/C",[24],1.62%
same,"viability, T/C",[25],1.46%
same,"viability, T/C",[26],0.81%
same,"viability, T/C","second compound 1 µM, first compound 0.00316 µM",103%
same,"viability, T/C","second compound 1 µM, first compound 0.01 µM",118%
same,"viability, T/C",[27],1.88%
same,"viability, T/C",[28],2.07%
same,"viability, T/C",[29],0.99%
same,"viability, T/C",[30],0.9%
CCC(CC)c1cc(NC2CCC(N)C2)n2nccc2n1 (configuration not stated),"viability, T/C",compound 0.0316 µM,101% [middle of 4 runs]
same,"viability, T/C",compound 0.1 µM,98% [middle of 4 runs]
same,"viability, T/C",compound 0.316 µM,99.4% [middle of 4 runs]
same,"viability, T/C",compound 3.16 µM,1.51% [middle of 4 runs]
same,"viability, T/C",compound 10 µM,0.97% [middle of 4 runs]
same,IC50,curve of compound,1.74 µM [middle of 4 runs]
